Data published in PMC6019134, “1,2,6-Thiadiazinones as Novel Narrow Spectrum Calcium/Calmodulin-Dependent Protein Kinase Kinase 2 (CaMKK2) Inhibitors” (Molecules : A Journal of Synthetic Chemistry and Natural …, 2018).

Experiments:
Experiment in all cases: DSF thermal shift, kinase panel
Type in all cases: binding
Conditions in all cases: 10 μM compound
CAMK1D = molecular target: T1, CAMK1D (Homo sapiens, UniProt Q8IU85)
T1 construct: purchased in-house (home-made panel, SGC-style construct names)
Method in brief: (§1)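 Thermal denaturation of 1 µM kinase with 10 µM compound present, monitored by dye fluorescence across 25–95 °C; shift in Tm relative to 0.2% DMSO reference.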

CHEK2 = molecular target: T2, CHEK2 (Homo sapiens, UniProt O96017)
T2 construct: purchased in-house (home-made panel, SGC-style construct names)
Method in brief: as §1

CSNK1G3 = molecular target: T3, CSNK1G3 (Homo sapiens, UniProt Q9Y6M4)
T3 construct: purchased in-house (home-made panel, SGC-style construct names)
Method in brief: as §1

DYRK1AA = molecular target: T4, DYRK1AA (Homo sapiens, UniProt Q13627)
T4 construct: purchased in-house (home-made panel, SGC-style construct names)
Method in brief: as §1

PKMYT1A = molecular target: T5, PKMYT1A (Homo sapiens, UniProt Q99640)
T5 construct: purchased in-house (home-made panel, SGC-style construct names)
T5 sequence (Q99640 1-499): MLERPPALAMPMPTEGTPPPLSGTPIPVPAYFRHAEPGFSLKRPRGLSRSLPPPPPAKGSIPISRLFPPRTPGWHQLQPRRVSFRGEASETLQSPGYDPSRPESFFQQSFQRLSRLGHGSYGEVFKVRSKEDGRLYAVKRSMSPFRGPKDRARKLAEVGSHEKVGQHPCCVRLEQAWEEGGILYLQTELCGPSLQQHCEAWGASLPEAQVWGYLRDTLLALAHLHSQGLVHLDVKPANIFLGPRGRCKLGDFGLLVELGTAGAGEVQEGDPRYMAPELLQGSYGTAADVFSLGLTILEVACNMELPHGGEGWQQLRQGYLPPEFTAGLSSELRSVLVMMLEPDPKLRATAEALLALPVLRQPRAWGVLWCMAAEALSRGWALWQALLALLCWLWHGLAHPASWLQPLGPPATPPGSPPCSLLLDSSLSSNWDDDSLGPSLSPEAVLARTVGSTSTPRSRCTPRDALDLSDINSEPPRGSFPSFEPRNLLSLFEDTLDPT
Method in brief: as §1

SRPK2A = molecular target: T6, SRPK2A (Homo sapiens, UniProt P78362)
T6 construct: purchased in-house (home-made panel, SGC-style construct names)
Method in brief: as §1

STK17AA = molecular target: T7, STK17AA (Homo sapiens, UniProt Q9UEE5)
T7 construct: TEV-cleavable (cleaved yes); made in house; host or cells: E. coli
T7 sequence (Q9UEE5 1-414): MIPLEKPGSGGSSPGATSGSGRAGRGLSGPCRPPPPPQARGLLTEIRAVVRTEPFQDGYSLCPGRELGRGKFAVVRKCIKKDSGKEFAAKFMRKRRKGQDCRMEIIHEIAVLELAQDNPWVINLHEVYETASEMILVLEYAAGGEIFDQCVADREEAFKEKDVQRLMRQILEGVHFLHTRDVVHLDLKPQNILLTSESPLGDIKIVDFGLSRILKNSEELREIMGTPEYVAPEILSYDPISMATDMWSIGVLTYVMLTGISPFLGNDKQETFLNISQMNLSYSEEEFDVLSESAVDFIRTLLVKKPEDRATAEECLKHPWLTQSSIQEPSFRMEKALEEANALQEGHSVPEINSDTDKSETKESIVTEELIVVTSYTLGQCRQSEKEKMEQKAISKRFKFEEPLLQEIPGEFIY
Method in brief: as §1

VRK1 = molecular target: T8, VRK1 (Homo sapiens, UniProt Q99986)
T8 construct: TEV-cleavable (cleaved yes); made in house; host or cells: E. coli
T8 sequence (Q99986 1-396): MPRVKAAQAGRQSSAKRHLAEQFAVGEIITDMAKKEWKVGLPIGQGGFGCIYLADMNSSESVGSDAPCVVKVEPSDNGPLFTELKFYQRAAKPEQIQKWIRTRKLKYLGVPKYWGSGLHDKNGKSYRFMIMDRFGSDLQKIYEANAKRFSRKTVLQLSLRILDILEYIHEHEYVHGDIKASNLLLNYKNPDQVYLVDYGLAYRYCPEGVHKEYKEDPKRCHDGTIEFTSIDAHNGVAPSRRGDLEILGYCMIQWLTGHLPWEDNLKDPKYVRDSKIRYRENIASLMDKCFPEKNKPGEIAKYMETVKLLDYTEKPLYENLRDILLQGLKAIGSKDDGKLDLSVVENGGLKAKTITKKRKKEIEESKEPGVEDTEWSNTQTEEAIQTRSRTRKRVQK
Method in brief: as §1

T1 sequence (Q8IU85 whole entry): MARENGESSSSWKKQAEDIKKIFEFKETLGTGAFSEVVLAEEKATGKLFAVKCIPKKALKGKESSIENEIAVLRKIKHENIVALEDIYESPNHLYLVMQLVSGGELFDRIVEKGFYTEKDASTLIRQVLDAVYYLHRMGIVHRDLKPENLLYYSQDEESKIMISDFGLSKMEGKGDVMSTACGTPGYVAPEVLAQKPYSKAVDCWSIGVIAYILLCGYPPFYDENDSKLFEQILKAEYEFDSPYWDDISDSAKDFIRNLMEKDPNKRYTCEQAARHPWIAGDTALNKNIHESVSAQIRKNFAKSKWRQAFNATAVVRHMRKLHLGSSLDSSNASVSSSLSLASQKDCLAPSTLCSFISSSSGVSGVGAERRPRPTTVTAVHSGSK
T3 sequence (Q9Y6M4 whole entry): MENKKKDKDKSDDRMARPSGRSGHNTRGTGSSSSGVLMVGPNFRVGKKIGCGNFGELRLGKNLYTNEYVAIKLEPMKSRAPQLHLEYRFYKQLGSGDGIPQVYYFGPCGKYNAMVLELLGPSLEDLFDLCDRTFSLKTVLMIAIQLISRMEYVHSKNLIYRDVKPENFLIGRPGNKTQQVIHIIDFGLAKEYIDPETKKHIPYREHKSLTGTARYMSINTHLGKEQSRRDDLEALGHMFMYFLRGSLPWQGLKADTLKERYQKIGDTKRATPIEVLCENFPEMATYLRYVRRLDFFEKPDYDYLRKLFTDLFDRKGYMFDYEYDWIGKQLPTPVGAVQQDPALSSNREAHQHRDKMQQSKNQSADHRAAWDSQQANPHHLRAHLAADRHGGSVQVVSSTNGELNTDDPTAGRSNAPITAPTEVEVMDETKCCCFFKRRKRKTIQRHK
T2 sequence (O96017 whole entry): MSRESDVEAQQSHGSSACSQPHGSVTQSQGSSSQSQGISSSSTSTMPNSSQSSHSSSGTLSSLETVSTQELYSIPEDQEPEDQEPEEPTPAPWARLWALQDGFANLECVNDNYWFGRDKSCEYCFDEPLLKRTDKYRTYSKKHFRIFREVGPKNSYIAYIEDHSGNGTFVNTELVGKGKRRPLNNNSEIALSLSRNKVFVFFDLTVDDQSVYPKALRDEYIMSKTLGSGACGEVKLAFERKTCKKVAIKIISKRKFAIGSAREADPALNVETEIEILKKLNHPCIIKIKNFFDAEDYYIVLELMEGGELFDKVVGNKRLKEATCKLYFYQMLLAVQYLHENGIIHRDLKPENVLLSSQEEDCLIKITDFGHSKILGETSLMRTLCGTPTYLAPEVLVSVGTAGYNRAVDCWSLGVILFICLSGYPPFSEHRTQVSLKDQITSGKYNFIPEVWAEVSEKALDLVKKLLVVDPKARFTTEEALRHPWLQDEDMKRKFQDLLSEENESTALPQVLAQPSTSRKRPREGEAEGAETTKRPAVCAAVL
T6 sequence (P78362 whole entry): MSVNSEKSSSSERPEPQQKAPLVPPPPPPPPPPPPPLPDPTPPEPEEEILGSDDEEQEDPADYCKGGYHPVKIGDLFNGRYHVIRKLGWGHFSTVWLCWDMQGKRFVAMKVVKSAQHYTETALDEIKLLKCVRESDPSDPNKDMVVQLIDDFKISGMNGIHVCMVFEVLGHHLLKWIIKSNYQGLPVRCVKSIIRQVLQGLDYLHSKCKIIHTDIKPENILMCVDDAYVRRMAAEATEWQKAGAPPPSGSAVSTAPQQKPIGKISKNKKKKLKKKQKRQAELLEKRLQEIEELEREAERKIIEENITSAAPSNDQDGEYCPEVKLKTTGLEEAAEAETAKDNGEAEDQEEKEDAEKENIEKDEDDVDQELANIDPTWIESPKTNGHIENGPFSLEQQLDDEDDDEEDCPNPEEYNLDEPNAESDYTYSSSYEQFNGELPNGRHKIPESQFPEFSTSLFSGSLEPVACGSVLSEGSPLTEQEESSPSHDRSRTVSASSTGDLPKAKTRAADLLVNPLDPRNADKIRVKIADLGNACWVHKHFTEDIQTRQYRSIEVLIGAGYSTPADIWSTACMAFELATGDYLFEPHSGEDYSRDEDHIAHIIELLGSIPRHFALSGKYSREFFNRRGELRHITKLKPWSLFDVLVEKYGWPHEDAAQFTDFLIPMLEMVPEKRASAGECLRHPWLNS

Cc1ccc(Nc2nsnc(Nc3ccc(C(N)=O)cc3)c2=O)cc1O [Compound 2, 4-({5-[(3-Hydroxy-4-methylphenyl)amino]-4-oxo-4H-1,2,6-thiadiazin-3-yl}amino)benzamide]
ΔTm at 10 µM (CAMK1D): 4.3 °C | ΔTm at 10 µM (CHEK2): 3.1 °C | ΔTm at 10 µM (CSNK1G3): 0.1 °C | ΔTm at 10 µM (DYRK1AA): 0.9 °C | ΔTm at 10 µM (PKMYT1A): 3 °C | ΔTm at 10 µM (SRPK2A): 0.6 °C | ΔTm at 10 µM (STK17AA): 2.2 °C | ΔTm at 10 µM (VRK1): -0.7 °C

CNC(=O)c1ccccc1Nc1nsnc(Nc2ccc(N3CCOCC3)cc2)c1=O [Compound 5, N-Methyl-2-({5-[(4-morpholinophenyl)amino]-4-oxo-4H-1,2,6-thiadiazin-3-yl}amino)benzamide]
ΔTm at 10 µM (CAMK1D): -0.9 °C | ΔTm at 10 µM (CHEK2): 0.8 °C | ΔTm at 10 µM (CSNK1G3): 0 °C | ΔTm at 10 µM (DYRK1AA): -0.8 °C | ΔTm at 10 µM (PKMYT1A): -0.8 °C | ΔTm at 10 µM (SRPK2A): -0.1 °C | ΔTm at 10 µM (STK17AA): -0.8 °C | ΔTm at 10 µM (VRK1): -0.3 °C

Cc1ccc(Nc2nsnc(Nc3ccc4c(c3)CS(=O)(=O)C4)c2=O)cc1O [Compound 3, 3-[(2,2-Dioxido-1,3-dihydrobenzo[c]thiophen-5-yl)amino]-5-[(3-hydroxy-4-methylphenyl)amino]-4H-1,2,6-thiadiazin-4-one]
ΔTm at 10 µM (CAMK1D): 1.4 °C | ΔTm at 10 µM (CHEK2): 1.6 °C | ΔTm at 10 µM (CSNK1G3): -0.2 °C | ΔTm at 10 µM (DYRK1AA): -0.1 °C | ΔTm at 10 µM (PKMYT1A): 1.2 °C | ΔTm at 10 µM (SRPK2A): 0.1 °C | ΔTm at 10 µM (STK17AA): 1.7 °C | ΔTm at 10 µM (VRK1): -0.2 °C

Cc1ccc(Nc2nsnc(Nc3cccc(C(N)=O)c3)c2=O)cc1O [Compound 1, 3-({5-[(3-Hydroxy-4-methylphenyl)amino]-4-oxo-4H-1,2,6-thiadiazin-3-yl}amino)benzamide]
ΔTm at 10 µM (CAMK1D): 0.8 °C | ΔTm at 10 µM (CHEK2): 0.6 °C | ΔTm at 10 µM (CSNK1G3): 0 °C | ΔTm at 10 µM (DYRK1AA): -0.6 °C | ΔTm at 10 µM (PKMYT1A): 0 °C | ΔTm at 10 µM (SRPK2A): -0.2 °C | ΔTm at 10 µM (STK17AA): -0.5 °C | ΔTm at 10 µM (VRK1): -0.4 °C

CNC(=O)c1ccccc1Nc1nsnc(Nc2cccc(CS(C)(=O)=O)c2)c1=O [Compound 4, N-Methyl-2-([5-({3-[(methylsulfonyl)methyl]phenyl}amino)-4-oxo-4H-1,2,6-thiadiazin-3-yl]-amino}-benzamide]
ΔTm at 10 µM (CAMK1D): -1.3 °C | ΔTm at 10 µM (CHEK2): 0.6 °C | ΔTm at 10 µM (CSNK1G3): -0.1 °C | ΔTm at 10 µM (DYRK1AA): -0.5 °C | ΔTm at 10 µM (PKMYT1A): -0.3 °C | ΔTm at 10 µM (SRPK2A): -0.3 °C | ΔTm at 10 µM (STK17AA): -0.8 °C | ΔTm at 10 µM (VRK1): -0.3 °C
